{"source": "patent US10829778B2", "about": "“Plants having increased tolerance to herbicides” (BASF SE, priority 2013, dated 2020)", "assay_in_all_cases": "HPPD activity assay, mutant enzyme", "type_in_all_cases": "biochemical", "key": {"[1]": {"biological_target": "T1, Arabidopsis HPPD (SEQ ID: 53) M335H, P336G (Arabidopsis thaliana, UniProt P93836, M335H/P336G)", "T1 construct": "PCR-based site directed mutagenesis of pEXP5-NT/TOPO®-AtHPPD; His6 (N); made in house; host or cells: E. coli BL21 (DE3)", "T1 sequence (P93836 whole entry M335H/P336G)": "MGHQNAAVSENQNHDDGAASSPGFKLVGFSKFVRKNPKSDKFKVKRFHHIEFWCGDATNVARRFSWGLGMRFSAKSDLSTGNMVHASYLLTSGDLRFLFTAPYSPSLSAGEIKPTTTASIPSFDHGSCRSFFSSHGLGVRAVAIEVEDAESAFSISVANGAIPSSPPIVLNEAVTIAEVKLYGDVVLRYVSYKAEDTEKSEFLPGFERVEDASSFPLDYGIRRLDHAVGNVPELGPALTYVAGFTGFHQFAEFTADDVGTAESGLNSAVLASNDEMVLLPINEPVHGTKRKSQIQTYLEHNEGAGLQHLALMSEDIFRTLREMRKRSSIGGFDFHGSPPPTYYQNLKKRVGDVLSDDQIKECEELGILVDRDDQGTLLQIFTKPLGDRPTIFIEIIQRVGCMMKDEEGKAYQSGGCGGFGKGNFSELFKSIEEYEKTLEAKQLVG", "conditions": "Table 15, normalized to Arabidopsis wild-type", "protocol": "(§1) HPPD produces homogentisic acid and CO2 from 4-hydroxyphenylpyruvate (4-HPP) and O2. The activity assay for HPPD is based on the analysis of homogentisic acid by reversed phase HPLC.\n(§2) The assay mixture can contain 150 mM potassium phosphate buffer pH 7.0, 50 mM L-ascorbic acid, 100 μM Catalase (Sigma-Aldrich), 1 μM FeSO4 and 0.2 units of purified HPPD enzyme in a total volume of 505 μl. 1 unit is defined as the amount of enzyme that is required to produce 1 nmol of HGA per minute at 20° C.\n(§3) After a preincubation of 30 min the reaction is started by adding 4-HPP to a final concentration of 0.05 mM. The reaction is allowed to proceed for 45 min at room temperature. The reaction is stopped by the addition of 50 μl of 4.5 M phosphoric acid. The sample is filtered using a […] pore size PVDF filtration device.\n(§4) 5 μl of the cleared sample is analyzed on an UPLC HSS T3 column (particle size 1.8 μm, dimensions 2.1×50 mm; Waters) by isocratic elution using 90% 20 mM NaH2PO4 pH 2.2, 10% methanol (v/v).\n(§5) HGA is detected electrochemically at 750 mV (mode: DC; polarity: positive) and quantified by integrating peak areas (Empower software; Waters).\n(§6) Inhibitors are dissolved in DMSO (dimethylsulfoxide) to a concentration of 0.5 mM. From this stock solution serial five-fold dilutions are prepared in DMSO, which are used in the assay. The respective inhibitor solution accounts for 1% of the assay volume. […] Activities are normalized by setting the uninhibited enzyme activity to 100%. IC50 values are calculated using non-linear regression.\n(§7) Purified, mutant HPPD enzymes are obtained by the methods described above. Dose response and kinetic measurements are carried out using the described HPPD activity assay. Apparent michaelis constants (Km) and maximal reaction velocities (Vmax) are calculated by non-linear regression with the software GraphPad Prism 5 (GraphPad Software, La Jolla, USA) using a substrate inhibition model. […] Weighted means (by standard error) of Km and IC50 values are calculated from at least three independent experiments.\n(§8) Field performance of the optimized HPPD enzyme, which is used as a herbicide tolerance trait may depend not only on its lack of sensitivity towards HPPD inhibiting herbicides but also on its activity. To assess the potential performance of a herbicide tolerance trait a tolerance index (TI) is calculated using the following formula: […]\n(§9) Easy comparison and ranking of each trait is enabled by normalizing tolerance indexes on Arabidopsis or Hordeum wild-type HPPD."}, "[2]": {"biological_target": "T2, Arabidopsis HPPD (SEQ ID: 53) M335H, P336A (Arabidopsis thaliana, UniProt P93836, M335H/P336A)", "T2 construct": "PCR-based site directed mutagenesis of pEXP5-NT/TOPO®-AtHPPD; His6 (N); made in house; host or cells: E. coli BL21 (DE3)", "T2 sequence (P93836 whole entry M335H/P336A)": "as the sequence (P93836 whole entry M335H/P336G) above, with G336A counted along it", "conditions": "Table 15, normalized to Arabidopsis wild-type", "protocol": "as §1, §2, §3, §4, §5, §6, §7, §8, §9"}, "[3]": {"biological_target": "T3, Arabidopsis HPPD (SEQ ID: 53) F381L (Arabidopsis thaliana, UniProt P93836, F381L)", "T3 construct": "PCR-based site directed mutagenesis of pEXP5-NT/TOPO®-AtHPPD; His6 (N); made in house; host or cells: E. coli BL21 (DE3)", "T3 sequence (P93836 whole entry F381L)": "as the sequence (P93836 whole entry M335H/P336G) above, with H335M, G336P, F381L counted along it", "conditions": "Table 15, normalized to Arabidopsis wild-type", "protocol": "as §1, §2, §3, §4, §5, §6, §7, §8, §9"}, "[4]": {"biological_target": "T4, Hordeum HPPD (SEQ ID: 2) R309K (Hordeum vulgare, UniProt O48604, A164G/R146V/R147D/R148G/R309K)", "T4 construct": "His tag (N); made in house; host or cells: E. coli BL21 (DE3)", "T4 sequence (O48604 whole entry R146V/R147D/R148G/A164G/R309K)": "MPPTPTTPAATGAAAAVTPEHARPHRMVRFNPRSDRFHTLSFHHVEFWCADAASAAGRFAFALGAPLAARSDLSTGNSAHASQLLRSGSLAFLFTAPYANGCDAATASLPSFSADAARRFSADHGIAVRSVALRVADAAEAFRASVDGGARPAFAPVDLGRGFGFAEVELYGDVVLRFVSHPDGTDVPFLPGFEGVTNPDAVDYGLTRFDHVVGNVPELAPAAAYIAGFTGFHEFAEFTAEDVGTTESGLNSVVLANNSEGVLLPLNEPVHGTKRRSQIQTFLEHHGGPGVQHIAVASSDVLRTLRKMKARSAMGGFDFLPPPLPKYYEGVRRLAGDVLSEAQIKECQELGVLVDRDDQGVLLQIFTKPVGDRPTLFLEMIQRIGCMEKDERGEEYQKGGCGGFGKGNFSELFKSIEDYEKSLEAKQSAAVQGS", "conditions": "Table 16, normalized to Hordeum wild-type", "protocol": "as §1, §2, §3, §4, §5, §6, §7, §8, §9"}, "[5]": {"biological_target": "T5, Hordeum HPPD (SEQ ID: 2) F404L (Hordeum vulgare, UniProt O48604, A164G/F404L/R146V/R147D/R148G)", "T5 construct": "His tag (N); made in house; host or cells: E. coli BL21 (DE3)", "T5 sequence (O48604 whole entry R146V/R147D/R148G/A164G/F404L)": "as the sequence (O48604 whole entry R146V/R147D/R148G/A164G/R309K) above, with K309R, F404L counted along it", "conditions": "Table 16, normalized to Hordeum wild-type", "protocol": "as §1, §2, §3, §4, §5, §6, §7, §8, §9"}, "[6]": {"biological_target": "T6, HvHPPD G407C (SEQ ID: 2) (Hordeum vulgare, UniProt O48604, A164G/G407C/R146V/R147D/R148G)", "T6 construct": "His tag (N); made in house; host or cells: E. coli BL21 (DE3)", "T6 sequence (O48604 whole entry R146V/R147D/R148G/A164G/G407C)": "as the sequence (O48604 whole entry R146V/R147D/R148G/A164G/R309K) above, with K309R, G407C counted along it", "conditions": "Table 16, normalized to Hordeum wild-type", "protocol": "as §1, §2, §3, §4, §5, §6, §7, §8, §9"}, "[7]": {"biological_target": "T7, Arabidopsis HPPD (SEQ ID: 53) M335H, P336A, E363Q (Arabidopsis thaliana, UniProt P93836, E363Q/M335H/P336A)", "T7 construct": "PCR-based site directed mutagenesis of pEXP5-NT/TOPO®-AtHPPD; His6 (N); made in house; host or cells: E. coli BL21 (DE3)", "T7 sequence (P93836 whole entry M335H/P336A/E363Q)": "as the sequence (P93836 whole entry M335H/P336G) above, with G336A, E363Q counted along it", "conditions": "Table 15, normalized to Arabidopsis wild-type", "protocol": "as §1, §2, §3, §4, §5, §6, §7, §8, §9"}, "[8]": {"biological_target": "T8, HvHPPD L320Q (SEQ ID: 2) (Hordeum vulgare, UniProt O48604, A164G/L320Q/R146V/R147D/R148G)", "T8 construct": "His tag (N); made in house; host or cells: E. coli BL21 (DE3)", "T8 sequence (O48604 whole entry R146V/R147D/R148G/A164G/L320Q)": "as the sequence (O48604 whole entry R146V/R147D/R148G/A164G/R309K) above, with K309R, L320Q counted along it", "conditions": "Table 16, normalized to Hordeum wild-type", "protocol": "as §1, §2, §3, §4, §5, §6, §7, §8, §9"}, "[9]": {"biological_target": "T9, Hordeum HPPD (SEQ ID: 2) L250M (Hordeum vulgare, UniProt O48604, A164G/L250M/R146V/R147D/R148G)", "T9 construct": "His tag (N); made in house; host or cells: E. coli BL21 (DE3)", "T9 sequence (O48604 whole entry R146V/R147D/R148G/A164G/L250M)": "as the sequence (O48604 whole entry R146V/R147D/R148G/A164G/R309K) above, with L250M, K309R counted along it", "conditions": "Table 16, normalized to Hordeum wild-type", "protocol": "as §1, §2, §3, §4, §5, §6, §7, §8, §9"}, "[10]": {"biological_target": "T10, HvHPPD L320H (SEQ ID: 2) (Hordeum vulgare, UniProt O48604, A164G/L320H/R146V/R147D/R148G)", "T10 construct": "His tag (N); made in house; host or cells: E. coli BL21 (DE3)", "T10 sequence (O48604 whole entry R146V/R147D/R148G/A164G/L320H)": "as the sequence (O48604 whole entry R146V/R147D/R148G/A164G/R309K) above, with K309R, L320H counted along it", "conditions": "Table 16, normalized to Hordeum wild-type", "protocol": "as §1, §2, §3, §4, §5, §6, §7, §8, §9"}, "[11]": {"biological_target": "T11, Hordeum HPPD (SEQ ID: 2) I416V (Hordeum vulgare, UniProt O48604, A164G/I416V/R146V/R147D/R148G)", "T11 construct": "His tag (N); made in house; host or cells: E. coli BL21 (DE3)", "T11 sequence (O48604 whole entry R146V/R147D/R148G/A164G/I416V)": "as the sequence (O48604 whole entry R146V/R147D/R148G/A164G/R309K) above, with K309R, I416V counted along it", "conditions": "Table 16, normalized to Hordeum wild-type", "protocol": "as §1, §2, §3, §4, §5, §6, §7, §8, §9"}, "[12]": {"biological_target": "T12, HvHPPD L353M, P321R, L320Q (SEQ ID: 2) (Hordeum vulgare, UniProt O48604, L320Q/L353M/P321R)", "T12 construct": "His tag (N); made in house; host or cells: E. coli BL21 (DE3)", "T12 sequence (O48604 whole entry R146V/R147D/R148G/A164G/L320Q/P321R/L353M)": "as the sequence (O48604 whole entry R146V/R147D/R148G/A164G/R309K) above, with K309R, L320Q, P321R, L353M counted along it", "conditions": "Table 16, normalized to Hordeum wild-type", "protocol": "as §1, §2, §3, §4, §5, §6, §7, §8, §9"}, "[13]": {"biological_target": "T13, HvHPPD L320H, P321A (SEQ ID: 2) (Hordeum vulgare, UniProt O48604, L320H/P321A)", "T13 construct": "His tag (N); made in house; host or cells: E. coli BL21 (DE3)", "T13 sequence (O48604 whole entry R146V/R147D/R148G/A164G/L320H/P321A)": "as the sequence (O48604 whole entry R146V/R147D/R148G/A164G/R309K) above, with K309R, L320H, P321A counted along it", "conditions": "Table 16, normalized to Hordeum wild-type", "protocol": "as §1, §2, §3, §4, §5, §6, §7, §8, §9"}, "[14]": {"biological_target": "T14, Arabidopsis HPPD (SEQ ID: 53) F381I (Arabidopsis thaliana, UniProt P93836, F381I)", "T14 construct": "PCR-based site directed mutagenesis of pEXP5-NT/TOPO®-AtHPPD; His6 (N); made in house; host or cells: E. coli BL21 (DE3)", "T14 sequence (P93836 whole entry F381I)": "as the sequence (P93836 whole entry M335H/P336G) above, with H335M, G336P, F381I counted along it", "conditions": "Table 15, normalized to Arabidopsis wild-type", "protocol": "as §1, §2, §3, §4, §5, §6, §7, §8, §9"}}}
{"smiles": "Cc1nonc1NC(=O)c1ccc(S(C)(=O)=O)c(S(C)(=O)=O)c1C", "note": "[Inhibitor 1, 2-methyl-N-(4-methyl-1,2,5-oxadiazol-3-yl)-3,4-bis(methylsulfonyl)benzamide]", "values": [{"measurement": "Normalized tolerance index TI Inhibitor 1", "setting": "[1]", "value": 3.6}, {"measurement": "Normalized tolerance index TI Inhibitor 1", "setting": "[2]", "value": 2.4}, {"measurement": "Normalized tolerance index TI Inhibitor 1", "setting": "[3]", "value": 35.2}, {"measurement": "Normalized tolerance index TI Inhibitor 1", "setting": "[4]", "value": 1.6}, {"measurement": "Normalized tolerance index TI Inhibitor 1", "setting": "[5]", "value": 4.6}, {"measurement": "Normalized tolerance index TI Inhibitor 1", "setting": "[6]", "value": 5}, {"measurement": "Normalized tolerance index TI Inhibitor 1", "setting": "[7]", "value": 6.7}, {"measurement": "Normalized tolerance index TI Inhibitor 1", "setting": "[8]", "value": 1.1}, {"measurement": "Normalized tolerance index TI Inhibitor 1", "setting": "[9]", "value": 2.1}, {"measurement": "Normalized tolerance index TI Inhibitor 1", "setting": "[10]", "value": 4.4}, {"measurement": "Normalized tolerance index TI Inhibitor 1", "setting": "[11]", "value": 1.7}, {"measurement": "Normalized tolerance index TI Inhibitor 1", "setting": "[12]", "value": 12.6}, {"measurement": "Normalized tolerance index TI Inhibitor 1", "setting": "[13]", "value": 5.3}, {"measurement": "Normalized tolerance index TI Inhibitor 1", "setting": "[14]", "value": 37}]}
